The values below are quoted from earlier work in patent publication US8206772B2, “Structured lipid compositions and methods of formulation thereof” (Kraft Foods Global Brands LLC, priority 2007, dated 2012).

For series [1] the following is noted: rats, 5 percent and 10 percent of the diet.
The conditions of series [2]: infants fed enriched milk.

For the compound `CC(=O)OCC(COC(C)=O)OC(C)=O` [triacetin], the “nutritional value / toxicity when fed” value in series [1] was “nutritious”. Take `CCCC(=O)OCC(COC(=O)CCC)OC(=O)CCC` [tributyrin]: in series [2], the “fat retained per day” value is on record as 90.1 to 90.2%. For the same compound, in series [1], the “nutritional value / toxicity when fed” value is “nutritious”. As to `CC(C)CC(=O)OCC(COC(=O)CC(C)C)OC(=O)CC(C)C` [triisovalerin], the “nutritional value / toxicity when fed” value in series [1] is “toxic”.
